In patent US20070219191A1, “3-Pyridinium Methyl Cephem Compound” (priority 2004, published 2007):
Converted amounts (≈) assume the structure as drawn.

Experiments:
Test in all cases: Antibacterial activity, MIC by agar plate dilution method
Format in all cases: cell-based
[1] = system: S. pneumoniae Type I; conditions: Streptococcus pneumoniae, 1000 cfu/spot
Experimental: (§1) Antibacterial activity of Compound (I) was examined.
(§2) Minimal inhibitory concentration (MIC: μg/ml) was determined by an agar plate dilution method using a sensitive disc medium as a test medium with an innoculation amount of 1000 cfu/spot in conformance with the standard method established by Japanese Society of Chemotherapy.

[2] = system: P. aeruginosa SR24; conditions: Pseudomonas aeruginosa, 1000 cfu/spot
Experimental: as §1, §2

[3] = system: E. coli NIHJ JC-2; conditions: Escherichia coli, NIHJJC2, 1000 cfu/spot
Experimental: as §1, §2

[4] = system: H. influenzae ATCC49766; conditions: Haemophilus influenzae, 1000 cfu/spot
Experimental: as §1, §2

MIC [1] [µg/mL] | MIC [2] [µg/mL] | MIC [3] [µg/mL] | MIC [4] [µg/mL] | Structure (SMILES)
0.125 (≈ 0.186 µM) | 0.5 (≈ 0.742 µM) | 0.125 (≈ 0.186 µM) | 0.032 (≈ 0.0475 µM) | C[C@H](N)CCn1c(N)nc2c1ccc[n+]2CC1=C(C(=O)[O-])N2C(=O)C(NC(=O)/C(=N\OC(C)(C)C(=O)O)c3nsc(N)n3)C2SC1 (stereo partly shown) [Example 19]
0.125 (≈ 0.203 µM) | 0.5 (≈ 0.812 µM) | 0.25 (≈ 0.406 µM) | 0.016 (≈ 0.026 µM) | Cc1c(N)[nH]c2ccc[n+](CC3=C(C(=O)[O-])N4C(=O)C(NC(=O)/C(=N\OC(C)(C)C(=O)O)c5nsc(N)n5)C4SC3)c12 (stereo not shown) [Example 10]
0.25 (≈ 0.365 µM) | 0.25 (≈ 0.365 µM) | 0.125 (≈ 0.182 µM) | 0.032 (≈ 0.0467 µM) | CC(C)(O/N=C(\C(=O)NC1C(=O)N2C(C(=O)[O-])=C(C[n+]3cccc4c3nc(N)n4C3CCNCC3)CSC12)c1nsc(N)n1)C(=O)O (stereo not shown) [Example 12]
0.125 (≈ 0.198 µM) | 0.5 (≈ 0.792 µM) | 0.125 (≈ 0.198 µM) | 0.063 (≈ 0.0997 µM) | CC(C)(O/N=C(\C(=O)NC1C(=O)N2C(C(=O)[O-])=C(C[n+]3ccc(NC4CCNC4)cc3)CSC12)c1nsc(N)n1)C(=O)O (stereo not shown) [Example 5]
